Laboratory results reported in US8263628B2, “Fluorine-containing organosulfur compound and pesticidal composition thereof” (Sumitomo Chemical Company, Limited., priority 2007, dated 2012).

Assays:
Culex pipiens pallens = assay: Water treatment test against Culex pipiens pallens last instar larvae; type: in vivo; conditions: 24 h; active ingredient 3.5 ppm in water; 20 Culex pipiens pallens last instar larvae; after one day; read-out: mortality rate
Protocol: Each of the formulations of the present compounds (1), (3), (4), (6), (8), (9), (10), (14) and (15) obtained in Formulation Example 20 was diluted so that the concentration of the present compound was 500 ppm to prepare a test solution.
To 100 mL of ion-exchange water was added 0.7 mL of the above test solution (concentration of an active ingredient: 3.5 ppm). In the solution, 20 Culex pipiens pallens last instar larvae were released. After one day, life and death of Culex pipiens last instar larvae were examined and the mortality rate was determined.

Musca domestica = assay: Filter paper/sucrose bait test against female Musca domestica; type: in vivo; conditions: 500 ppm test solution, 0.7 mL on filter paper; 10 female Musca domestica; after 24 hours; read-out: mortality rate
Protocol: Each of the formulations of the present compounds (1), (2), (3), (4), (5), (6), (8), (9), (10), (12), (14) and (15) obtained in Formulation Example 20 was diluted so that the concentration of the present compound was 500 ppm to prepare a test solution.
On the bottom of a polyethylene cup having a diameter of 5.5 cm, a filter paper having the same size was laid and 0.7 mL of the test solution was dropped on the filter paper, and then 30 mg of a sucrose as a bait was uniformly placed. In the polyethylene cup, 10 female Musca domesticas were released and the cup was lidded. After 24 hours, life and death of Musca domesticas were examined and the mortality rate was determined.

**Q.** Which mortality at 3.5 ppm (Culex pipiens pallens) does the source give for `FC(F)(F)CCSCc1ccc(C(F)(F)F)nc1` [present compound (1), 2-trifluoromethyl-5-(3,3,3-trifluoropropylsulfanylmethyl)pyridine] here?
**A.** Its mortality at 3.5 ppm is at least 95%.

**Q.** What about the mortality at 500 ppm (Musca domestica) of the same compound?
**A.** Its mortality at 500 ppm is at least 90%.

**Q.** Which mortality at 500 ppm (Musca domestica) does the source give for `O=S(=O)(CCC(F)(F)F)Cc1ccc(C(F)(F)F)nc1` [present compound (2), 2-trifluoromethyl-5-(3,3,3-trifluoropropanesulfonylmethyl)pyridine] here?
**A.** Its mortality at 500 ppm is at least 90%.

**Q.** For `CC(SCCC(F)(F)F)c1ccc(C(F)(F)F)nc1` (stereo not drawn) [present compound (3), 2-trifluoromethyl-5-[1-(3,3,3-trifluoropropylsulfanyl)ethyl]pyridine], which mortality at 3.5 ppm (Culex pipiens pallens) is on record?
**A.** Its mortality at 3.5 ppm is at least 95%.

**Q.** What about the mortality at 500 ppm (Musca domestica) of the same compound?
**A.** The mortality at 500 ppm was at least 90%.

**Q.** What does the source list for `CC(c1ccc(C(F)(F)F)nc1)S(=O)(=O)CCC(F)(F)F` (stereo not drawn) [present compound (4), 2-trifluoromethyl-5-[1-(3,3,3-trifluoropropanesulfonyl)ethyl]pyridine]?
**A.** mortality at 3.5 ppm (Culex pipiens pallens): ≥ 95%; mortality at 500 ppm (Musca domestica): ≥ 90%

**Q.** `FC(F)(F)CCSCc1ccc(Cl)cn1` [present compound (5), 5-chloro-2-(3,3,3-trifluoropropylsulfanylmethyl)pyridine] was tested. Which mortality at 500 ppm (Musca domestica) did it give?
**A.** Its mortality at 500 ppm is at least 90%.

**Q.** `CC(SCCC(F)(F)F)c1ccc(Cl)cn1` (stereo not drawn) [present compound (6), 5-chloro-2-[1-(3,3,3-trifluoropropylsulfanyl)ethyl]pyridine] was tested. Which mortality at 3.5 ppm (Culex pipiens pallens) did it give?
**A.** Its mortality at 3.5 ppm is at least 95%.

**Q.** And the mortality at 500 ppm (Musca domestica)?
**A.** Its mortality at 500 ppm is at least 90%.

**Q.** For `CC(SCCC(F)(F)F)c1ccc(C(F)(F)F)cn1` (stereo not drawn) [present compound (8), 5-trifluoromethyl-2-[1-(3,3,3-trifluoropropylsulfanyl)ethyl]pyridine], which mortality at 3.5 ppm (Culex pipiens pallens) is on record?
**A.** The mortality at 3.5 ppm was at least 95%.

**Q.** And the mortality at 500 ppm (Musca domestica)?
**A.** Its mortality at 500 ppm is at least 90%.

**Q.** With `CC(c1ccc(C(F)(F)F)cn1)S(=O)(=O)CCC(F)(F)F` (stereo not drawn) [present compound (9), 5-trifluoromethyl-2-[1-(3,3,3-trifluoropropanesulfonyl)ethyl]pyridine] as the compound, how does the mortality at 3.5 ppm (Culex pipiens pallens) read?
**A.** The mortality at 3.5 ppm was at least 95%.

**Q.** What about the mortality at 500 ppm (Musca domestica) of the same compound?
**A.** The mortality at 500 ppm was at least 90%.

**Q.** For `FC(F)(F)CCSCc1cnc(C(F)(F)F)nc1` [present compound (10), 2-trifluoromethyl-5-(3,3,3-trifluoropropylsulfanylmethyl)pyrimidine], which mortality at 3.5 ppm (Culex pipiens pallens) is on record?
**A.** The mortality at 3.5 ppm was at least 95%.

**Q.** And the mortality at 500 ppm (Musca domestica)?
**A.** Its mortality at 500 ppm is at least 90%.

**Q.** For `COc1ncc(CSCCC(F)(F)F)cn1` [present compound (12), 2-methoxy-5-(3,3,3-trifluoropropylsulfanylmethyl)pyrimidine], which mortality at 500 ppm (Musca domestica) is on record?
**A.** Its mortality at 500 ppm is at least 90%.

**Q.** `COC(=O)C(Cl)(c1ccc(C(F)(F)F)cn1)S(=O)(=O)CCC(F)(F)F` (stereo not drawn) [present compound (14), methyl 2-chloro-2-(5-trifluoromethylpyridin-2-yl)-2-(3,3,3-trifluoropropylsulfonyl)acetate] was tested. Which mortality at 3.5 ppm (Culex pipiens pallens) did it give?
**A.** Its mortality at 3.5 ppm is at least 95%.

**Q.** And the mortality at 500 ppm (Musca domestica)?
**A.** Its mortality at 500 ppm is at least 90%.

**Q.** For `O=S(=O)(CCC(F)(F)F)C(Cl)c1ccc(C(F)(F)F)cn1` (stereo not drawn) [present compound (15), 2-[chloro-(3,3,3-trifluoropropanesulfonyl)methyl]-5-trifluoromethylpyridine], which mortality at 3.5 ppm (Culex pipiens pallens) is on record?
**A.** The mortality at 3.5 ppm was at least 95%.

**Q.** What about the mortality at 500 ppm (Musca domestica) of the same compound?
**A.** Its mortality at 500 ppm is at least 90%.
